We go through one compound from patent US10550116B2, “Fused bicyclic heterocycle derivatives as pesticides” (BAYER CROPSCIENCE AKTIENGESELLSCHAFT, priority 2015, dated 2020).

Each structure is given as a SMILES string.

Series [1] relates to Myzus persicae. As to the kind of experiment: Myzus persicae spray test. The class given is in vivo. As to conditions: foliar, 100 g/ha, Chinese cabbage leaf discs, after 5-6 days, read-out: efficacy. Here is the method:
(§1) To produce a suitable active ingredient preparation, 1 part by weight of active ingredient is dissolved with the stated parts by weight of solvent and made up with water containing an emulsifier concentration of 1000 ppm until the desired concentration is attained. To produce further test concentrations, the preparation is diluted with emulsifier-containing water. Discs of Chinese cabbage leaves (Brassica pekinensis) infested by all stages of the green peach aphid (Myzus persicae) are sprayed with an active ingredient preparation of the desired concentration. After 5-6 days, the efficacy in % is determined. 100% means that all the aphids have been killed; 0% means that no aphids have been killed.

The test system of series [2] is Ctenocephalides felis. The series is described as follows: Ctenocephalides felis oral test. The class given is in vivo. Particulars: 100 ppm in citrated cattle blood; adult cat fleas; after 2 days. Here is the method: For the purpose of production of a suitable active ingredient preparation, 10 mg of active ingredient are mixed with 0.5 ml of dimethyl sulphoxide. Dilution with citrated cattle blood gives the desired concentration. About 20 unfed adult cat fleas (Ctenocephalides felis) are placed into a chamber which is closed at the top and bottom with gauze. A metal cylinder whose bottom end is closed with parafilm is placed onto the chamber. The cylinder contains the blood/active ingredient preparation, which can be imbibed by the fleas through the parafilm membrane. After 2 days, the kill in % is determined. 100% means that all of the fleas have been killed; 0% means that none of the fleas have been killed.

Series [3] has as its system Spodoptera frugiperda. The series is described as follows: Spodoptera frugiperda spray test. The class given is in vivo. Particulars: foliar, 168 h, 500 g/ha, caterpillars on maize leaf discs, after 7 days, read-out: efficacy. Here is the method: To produce a suitable active ingredient preparation, 1 part by weight of active ingredient is dissolved with the stated parts by weight of solvent and made up with water containing an emulsifier concentration of 1000 ppm until the desired concentration is attained. To produce further test concentrations, the preparation is diluted with emulsifier-containing water. Leaf discs of maize (Zea mays) are sprayed with an active ingredient preparation of the desired concentration and, after drying, populated with caterpillars of the armyworm (Spodoptera frugiperda). After 7 days, the efficacy in % is determined. 100% means that all the caterpillars have been killed; 0% means that no caterpillar has been killed.

Series [4] has as its system Lucilia cuprina. As to the kind of experiment: Lucilia cuprina test. The class given is in vivo. Particulars: 100 ppm; L1 larvae; after 2 days. Here is the method: To produce a suitable active ingredient preparation, 10 mg of active ingredient are mixed with 0.5 ml of dimethyl sulphoxide, and the concentrate is diluted with water to the desired concentration. About 20 L1 larvae of the Australian sheep blowfly (Lucilia cuprina) are transferred into a test vessel containing minced horsemeat and the active ingredient preparation of the desired concentration. After 2 days, the kill in % is determined. 100% means that all the larvae have been killed; 0% means that no larvae have been killed.

A short description of series [5]: log P by HPLC on reversed-phase column (EEC Directive 79/831 Annex V.A8). Particulars: reversed-phase C18 HPLC column; pH 7.8, aqueous ammonium hydrogencarbonate/acetonitrile; 55° C.; read-out: log P (neutral). The class given is physicochemical. The method, then:
The log P values are measured according to EEC Directive 79/831 Annex V.A8 by HPLC (high-performance liquid chromatography) on a reversed-phase column (C 18). Temperature: 55° C. The LC-MS determination in the acidic range is effected at pH 2.7 using 0.1% aqueous formic acid and acetonitrile (contains 0.1% formic acid) as eluents; linear gradient from 10% acetonitrile to 95% acetonitrile. Called log P (HCOOH) in the table. LC-MS determination in the neutral range is effected at pH 7.8 with 0.001 molar aqueous ammonium hydrogencarbonate solution and acetonitrile as eluents; linear gradient from 10% acetonitrile to 95% acetonitrile. Called log P (neutral) in the table. Calibration is carried out using unbranched alkan-2-ones (having 3 to 16 carbon atoms) with known log P values (log P values determined on the basis of the retention times by linear interpolation between two successive alkanones).

Series [6] relates to Meloidogyne incognita. The series is described as follows: Meloidogyne incognita test. It is filed as in vivo. As to conditions: 20 ppm; lettuce; after 14 days. The method, then:
To produce a suitable preparation of active ingredient, 1 part by weight of active ingredient is mixed with the stated amount of solvent and the concentrate is diluted with water to the desired concentration. Vessels are filled with sand, active ingredient solution, an egg/larvae suspension of the southern root-knot nematode (Meloidogyne incognita) and lettuce seeds. The lettuce seeds germinate and the plants develop. The galls develop on the roots. After 14 days, the nematicidal efficacy in % is determined by the formation of galls. 100% means that no galls were found; 0% means that the number of galls on the treated plants corresponds to the untreated control.

For series [7], the system named is Ctenocephalides felis. The series is described as follows: Ctenocephalides felis in vitro contact test with adult cat fleas. The class given is in vivo. Particulars: application rate 5 μg/cm^2 (=500 g/ha), after 48 h. The method, then: For the coating of the test tubes, 9 mg of active ingredient are first dissolved in 1 ml of acetone p.a. and then diluted to the desired concentration with acetone p.a. 250 μl of the solution are distributed homogeneously on the inner walls and the base of a 25 ml test tube by turning and rocking on an orbital shaker (rocking rotation at 30 rpm for 2 h). With 900 ppm active ingredient solution and internal surface area 44.7 cm^2, given homogeneous distribution, an area-based dose of 5 μg/cm^2 is achieved. After the solvent has evaporated off, the tubes are populated with 5-10 adult cat fleas (Ctenocephalides felis), sealed with a perforated plastic lid and incubated in a horizontal position at room temperature and ambient humidity. After 48 h, efficacy is determined. To this end, the test tubes are stood upright and the fleas are knocked to the base of the tube. Fleas which remain motionless at the base or move in an uncoordinated manner are considered to be dead or moribund. […] 100% efficacy means that all the fleas were dead or moribund. 0% efficacy means that no fleas were harmed.

For series [8], the system named is Phaedon cochleariae. The series is described as follows: Phaedon cochleariae spray test. The class given is in vivo. As to conditions: foliar, 168 h, 500 g/ha, larvae on Chinese cabbage leaf discs, after 7 days, read-out: efficacy. Here is the method:
as §1, with “pekinensis)” for “pekinensis) infested by all stages of the green peach aphid (Myzus persicae)”, “concentration and, after drying, populated with larvae of the mustard beetle (Phaedon cochleariae).” for “concentration.”, “7” for “5-6”, “beetle larvae” for “aphids”

Series [9] deals with Musca domestica. The series is described as follows: Musca domestica test. As to conditions: 4 ppm; adult houseflies; after 2 days. The class given is in vivo. Here is the method:
To produce a suitable active ingredient preparation, 10 mg of active ingredient are mixed with 0.5 ml of dimethyl sulphoxide, and the concentrate is diluted with water to the desired concentration. Vessels containing a sponge treated with sugar solution and the active ingredient preparation of the desired concentration are populated with 10 adult houseflies (Musca domestica). After 2 days, the kill in % is determined. 100% means that all of the flies have been killed; 0% means that none of the flies have been killed.

In the case of `CCS(=O)(=O)c1cc2ccccc2nc1-c1nc2cc(C(F)(F)F)ncc2n1C` [Example I-1, 3-Ethylsulphonyl-2-[3-methyl-6-(trifluoromethyl)imidazo[4,5-c]pyridin-2-yl]quinoline], the pest or weed control at 100 g/ha in series [1] was determined as 90%. For the same compound, the “efficacy (kill)” value came to 100% in series [2], 100% in [4] and 75% in series [9]. Moreover, the pest or weed control at 500 g/ha in [3] and in [8] was 100% throughout. For the same compound, the chromatographic logP in series [5] turned out to be 2.75. Further, the “nematicidal efficacy (formation of galls)” value in [6] stood at 70%. Besides, in series [7], the efficacy worked out at 100%.
